In patent US20230201216A1, “AZELASTINE AS ANTIVIRAL TREATMENT” (priority 2020, published 2023):
Structures can show the parent of a compound that is named as a salt. Where two headings read alike, the source gives them in different places.

Assays:
SARS-CoV-2 [1] = settings: without virus infection; MucilAir
SARS-CoV-2 B.1.351 = type: cell-based
SARS-CoV-2 [2] = type: cell-based; settings: for viral particle/μL, co-administration / viral particle/μL, post-infection administration: Vero E6, 48 h post infection, median; for reduction of viral particle numbers (up to): Vero E6
influenza H1N1 = type: cell-based; settings: 24 h post-infection, compared to buffer treated cells
RANTES = type: cell-based, human
IL-8 = type: cell-based, human
[3] = system: MucilAir human nasal epithelial cells
RSV Long strain = test: RSV infection of HEp-2 cells, spot count and viral genome copy number by RT-PCR; type: cell-based, Respiratory Syncytial Virus; settings: for RSV infection of cells by spot count, compared to vehicle (DMSO) treated controls: all 3 settings, HEp-2
SARS-CoV-2 [4] = type: cell-based
SARS-CoV-2 [5] = type: cell-based; settings: for cytopathic effect (CPE) score: Vero E6, MOI 0.1, 48 hours post infection; for protective effect against SARS-CoV-2 cytopathic effect: Vero E6
SARS-CoV-2 [6] = settings: cells expressing TMPRSS2, including Calu-3; ref. Hoffmann et al.; cited from earlier work

With `CN1CCCC(n2nc(Cc3ccc(Cl)cc3)c3ccccc3c2=O)CC1` (centres unmarked) [Azelastine, 4-[(4-chlorophenyl)methyl]-2-(1-methylazepan-4-yl)phthalazin-1-one] the “tissue morphology of treated versus control cells” value (SARS-CoV-2 [1]) was “No difference in tissue morphology”, the “inhibition (low viral numbers)” value (SARS-CoV-2 B.1.351) was “over 90%” and the “viral particle/μL, co-administration” value (SARS-CoV-2 [2]; 3.125 μM) was 98.4 viral particle/μL. For the same molecule, the “viral particle/μL, post-infection administration” value (SARS-CoV-2 [2]; 3.125 μM) was 138 viral particle/μL, the “viral particle/μL, co-administration” value (SARS-CoV-2 [2]; 6.25 μM) was 15.45 viral particle/μL and the “viral particle/μL, post-infection administration” value (SARS-CoV-2 [2]; 6.25 μM) was 68.4 viral particle/μL. For the same molecule, the “viral particle/μL, co-administration” value (SARS-CoV-2 [2]; 12.5 μM) was 12.25 viral particle/μL, the “viral particle/μL, post-infection administration” value (SARS-CoV-2 [2]; 12.5 μM) was 52 viral particle/μL and the “viral particle/μL, co-administration” value (SARS-CoV-2 [2]; 25 μM) was 0.2 viral particle/μL. For the same molecule, the “viral particle/μL, post-infection administration” value (SARS-CoV-2 [2]; 25 μM) was 6.865 viral particle/μL, the “reduction of viral particle numbers (up to)” value (“reduction … (up to)” for short) (SARS-CoV-2 [2]; co-administration (simulating prevention)) was greater than 99% and the “reduction … (up to)” value (SARS-CoV-2 [2]; post-infection administration (post-exposure or therapy)) was greater than 97%.

With `CN1CCCC(n2nc(Cc3ccc(Cl)cc3)c3ccccc3c2=O)CC1` (centres unmarked) [Azelastine-HCl] the “decrease in the viral copy” value (influenza H1N1; 0.01% azelastine-HCl) was roughly 0.9 log, the “reduction of viral genome copy” value (influenza H1N1; 0.01% azelastine-HCl) was 87.4% and the “decrease in the viral copy” value (influenza H1N1; 0.02% azelastine-HCl) was roughly 1.9 log. For the same molecule, the “reduction of viral genome copy” value (influenza H1N1; 0.02% azelastine-HCl) was 98.74%, the “RANTES levels compared to buffer control” value (RANTES) was “significantly reduced” and the “IL-8 levels compared to buffer control” value (IL-8) was “significantly reduced”. For the same molecule, the cytotoxicity ([3]; 0.02% concentration, infected cells) was “no cytotoxicity”, the cytotoxicity ([3]; 0.02% concentration, non-infected cells) was 6.5% and the cytotoxicity ([3]; lower (0.01%) concentration) was “no cytotoxicity”. The “RSV infection of cells by spot count, compared to vehicle (DMSO) treated controls” value (RSV Long strain; 3.2 μM) was roughly 50%, the “RSV infection of cells by spot count, compared to vehicle (DMSO) treated controls” value (RSV Long strain; 6.4 μM) was roughly 50% and the “Viral genome copy relative to DMSO” value (RSV Long strain; 6.4 μM, co-administration, experiment #1) was 46.65%. The “Viral genome copy relative to DMSO” value (RSV Long strain; 6.4 μM, co-administration, experiment #2) was 53.22%, the “Viral genome copy relative to DMSO” value (RSV Long strain; 6.4 μM, preventive, experiment #1) was 65.52% and the “Viral genome copy relative to DMSO” value (RSV Long strain; 6.4 μM, preventive, experiment #2) was 54.71%. The “Viral genome copy relative to DMSO” value (RSV Long strain; 6.4 μM, therapeutic, experiment #1) was 47.96%, the “Viral genome copy relative to DMSO” value (RSV Long strain; 6.4 μM, therapeutic, experiment #2) was 51.05% and the “reduction of viral particle numbers” value (SARS-CoV-2 [4]) was “over 90%”. For the same molecule, the “reduction … (up to)” value (SARS-CoV-2 [4]; 50 μM, Calu-3, MOI 0.01, 48 h) was greater than 99%, the “cytopathic effect (CPE) score” value (SARS-CoV-2 [5]; 3.125 μM) was 2 and the “cytopathic effect (CPE) score” value (SARS-CoV-2 [5]; 6.25 μM) was 2.

For `CCN(CCO)CCCC(C)Nc1ccnc2cc(Cl)ccc12` (centres unmarked) [Hydroxychloroquine sulfate], the “potency on cells expressing the surface protease TMPRSS2” value (SARS-CoV-2 [6]) is given as “significantly loses its potency”.

In the case of Maraviroc, the “cytopathic effect (CPE) score” value (SARS-CoV-2 [5]; 3.125 μM) is reported as 4, the “cytopathic effect (CPE) score” value (SARS-CoV-2 [5]; 6.25 μM) is reported as 4 and the “cytopathic effect (CPE) score” value (SARS-CoV-2 [5]; 12.5 μM) is reported as 3. The “cytopathic effect (CPE) score” value (SARS-CoV-2 [5]; 25 μM) was 3, the “cytopathic effect (CPE) score” value (SARS-CoV-2 [5]; 50 μM) was 3 and the “protective effect against SARS-CoV-2 cytopathic effect” value (SARS-CoV-2 [5]; higher concentrations (12.5 to 50 μM)) was “only marginal protective effect”. The “protective effect against SARS-CoV-2 cytopathic effect” value (SARS-CoV-2 [5]; lower concentrations) was “not effective at all”.
